Here are results for 51 compounds from PubChem BioAssay AID1996.

Converted amounts (≈) assume the structure as drawn. Where only a bound is given, the exact number is not on record here.

For the series the following is noted: buffer; pH 7.4; 200.0 µM.
The term kinetic solubility denotes the concentration staying in solution when a stock, usually in DMSO, is diluted into the medium. `Cc1cc(C)nc(N2CCC(C(=O)NC3CC3)CC2)n1` registered a kinetic solubility of 36.4 µg/mL (≈ 133 µM). As for `O=C(Cc1ccccc1)NNC(=S)NC(=O)c1cccnc1`, the figure is over 47.2 µg/mL; as for `O=C(c1ccccc1)C1CCN(C(=O)Nc2ccccc2)CC1`, 41.2 µg/mL (≈ 134 µM). To `CN(C)S(=O)(=O)c1ccc(N2CCCC2)c(C(=O)Nc2nccs2)c1` belongs 51.6 µg/mL (≈ 136 µM); to `Cc1ccc(C(=O)Nc2ccccc2Cl)cc1`, 21 µg/mL (≈ 85.5 µM); to `CC1CCC(NC(=O)C(=O)Nc2ccc3c(c2)OCO3)CC1` (stereo unspecified), 0.5 µg/mL (≈ 1.64 µM). To `CCNC(=S)NNC(=O)c1ccc(S(=O)(=O)NCc2ccco2)cc1` belongs over 57.4 µg/mL; to `O=C(CSc1nc2ccccc2s1)NCC1CCCO1` (stereo unspecified), over 46.3 µg/mL. `O=S(=O)(NCc1ccco1)c1ccc(Cl)cc1Cl` came in with a kinetic solubility of 35 µg/mL (≈ 114 µM).

On to `O=C(O/N=C(/c1ccccc1)c1ccncc1)c1cccc(F)c1`, for which the kinetic solubility was 2.1 µg/mL (≈ 6.56 µM).

The compound `CN(CC1COc2ccccc2O1)C(=O)CSc1ncccn1` (stereo unspecified) displayed a solubility (kinetic) of over 49.7 µg/mL. To `CN(CC(=O)NCc1ccccc1)Cc1ccc(Cl)cc1` belongs 43.3 µg/mL (≈ 143 µM). `COC(=O)c1c(C)oc(C)c1S(=O)(=O)N1CCOCC1`: the kinetic solubility worked out at 40.9 µg/mL (≈ 135 µM).

`Cc1ccc(-n2c(C)nnc2SC(C)C(=O)N2CCCC2)cc1` (stereo unspecified) displayed a kinetic solubility of over 49.6 µg/mL. As for `O=C(CSc1ccccc1C(=O)O)Nc1ccc2c(c1)OCO2`, the figure is over 49.7 µg/mL; as for `Nc1cccc(-c2cc3ccccc3oc2=O)c1`, over 35.6 µg/mL. To `O=C(C1CC(=O)N(c2ccc(F)cc2)C1)N1CCCCC1` (stereo unspecified) belongs 39 µg/mL (≈ 134 µM). As for `CC(C)CC(=O)NC(c1ccccc1)c1c(O)ccc2ccccc12` (stereo unspecified), the figure is under 0.7 µg/mL; as for `CCOc1ccc(N(C)S(=O)(=O)c2ccc(C)c(C(=O)N3CCN(Cc4ccc5c(c4)OCO5)CC3)c2)cc1`, 15.2 µg/mL (≈ 27.6 µM). With `O=C(Nc1c(-c2ccc(F)cc2)nc2ccccn12)c1ccc(F)cc1`, the kinetic solubility stood at 3.3 µg/mL (≈ 9.45 µM). To `CC1CC(C)CN(S(=O)(=O)c2ccc(C(=O)N(C)Cc3ccccc3)cc2)C1` (stereo unspecified) belongs 13.7 µg/mL (≈ 34.2 µM); to `CC(Sc1nncs1)C(=O)NC1CCCCC1C` (stereo unspecified), over 42.8 µg/mL; to `CCOc1ccc(C(=O)OC(C)CN2CCCCC2)cc1.Cl` (stereo unspecified), over 49.2 µg/mL.

Turning to `COc1ccc(NC(=O)CC2Oc3ccccc3NC2=O)c(OC)c1` (stereo unspecified), the solubility (kinetic) was 4 µg/mL (≈ 11.7 µM). Turning to `CCN(CC)c1ccc(/C=C(\C#N)C(N)=O)cc1`, the solubility (kinetic) was over 36.5 µg/mL. To `O=C(CSc1n[nH]c(=O)n1C1CC1)Nc1ccccc1` belongs over 43.6 µg/mL; to `COC(=O)c1ccc(NC(=O)C[n+]2ccccc2)cc1.[Cl-]`, over 46 µg/mL. Turning to `Cl.FC(F)(F)c1cccc(C2NCc3ccccc3-n3cccc32)c1` (stereo unspecified), the kinetic solubility is 3.9 µg/mL.

Consider `COc1ccc(COC(=O)CCc2c[nH]c3ccccc23)cc1F`, for which the kinetic solubility was 7.7 µg/mL (≈ 23.5 µM). To `CC(C)CC(=O)N/C(N)=N/c1nc2ccccc2o1` belongs 1.3 µg/mL (≈ 4.99 µM); to `CCOc1ccc(NC(=O)CN2C(=O)COc3ccccc32)cc1`, 5.1 µg/mL (≈ 15.6 µM). To `Cc1ccc(NC(=O)COC(=O)c2ccco2)cc1C` belongs 23.3 µg/mL (≈ 85.3 µM); to `O=C(Nc1ccccc1)c1ccccc1NC(=O)c1ccccc1C(=O)O`, 52.6 µg/mL (≈ 146 µM); to `COc1cc(C(=O)NC(C)C2CC3CCC2C3)cc(OC)c1OC` (stereo unspecified), 9.8 µg/mL (≈ 29.4 µM).

In the case of `CC(C)(C)c1ccc(-c2noc(CNC(=O)c3ccco3)n2)cc1`, the kinetic solubility was 3.8 µg/mL (≈ 11.7 µM). `O/N=C\c1cccn1-c1nccs1` showed a solubility (kinetic) of over 29 µg/mL. `O=C(NCCOc1ccc(Cl)cc1)c1ccco1` showed a kinetic solubility of 25.9 µg/mL (≈ 97.5 µM). To `COC(=O)c1cc(OC)c(OC)cc1NC(=S)N1CCCC1` belongs 6.3 µg/mL (≈ 19.4 µM). As for `Cc1c(Cl)cnc(NC(=O)COC(=O)CNC(=O)c2ccccc2)c1Cl`, the figure is 52.3 µg/mL (≈ 132 µM); as for `Cc1ccc(OCC(=O)Nc2ccc3c(c2)C(=O)NC3=O)cc1`, 2.4 µg/mL (≈ 7.73 µM); as for `O=C(Nc1ccc(F)c(F)c1)c1ccco1`, over 33.5 µg/mL.

In turn, `N/C(=N\OC(=O)Cc1ccc([N+](=O)[O-])cc1)c1ccccn1` returned a kinetic solubility of 26.6 µg/mL (≈ 88.6 µM).

Regarding `N#Cc1c(-c2ccc(Cl)cc2)c2c([nH]c1=O)-c1ccccc1OC2`, the kinetic solubility amounted to 7.6 µg/mL (≈ 22.7 µM).

Consider `O=c1cc(C(F)(F)F)[nH]c2ccc(C(F)(F)F)cc12`, for which the solubility (kinetic) was over 42.2 µg/mL. On to `COC(=O)c1c(C)oc(C)c1S(=O)(=O)NCc1ccc(Cl)cc1`, for which the kinetic solubility was determined as 5 µg/mL (≈ 14 µM).

For the compound `CC(=O)c1ccc(NC(=O)Nc2cccc3ccccc23)cc1`, the kinetic solubility is 0.4 µg/mL (≈ 1.31 µM). As for `COc1ccccc1-n1c(SCC(=O)NCc2ccc3c(c2)OCO3)nc2cc([N+](=O)[O-])ccc21`, the figure is 3.1 µg/mL (≈ 6.29 µM); as for `FC(F)(F)c1cccc(Cc2noc(CN3C[C@@H]4CCC[C@H]3C4)n2)c1`, 28.4 µg/mL (≈ 80.8 µM); as for `CC(=O)C(C)Oc1ccc(Cc2ncc(C(F)(F)F)cc2Cl)cc1` (stereo unspecified), 13.1 µg/mL (≈ 36.6 µM). To `CCC(=O)c1ccc(OCC(=O)Nc2nc(C)cs2)cc1` belongs 8.9 µg/mL (≈ 29.2 µM).

`Cl.Clc1ccc2sc(C3CCNCC3)nc2c1` yielded a solubility (kinetic) of 43.3 µg/mL.
